The results in this text go back to patent publication US11661403B2, “Oxadiazole compounds” (Vivace Therapeutics, Inc., priority 2018, dated 2023).

For one test, the system named is 8XTBD luciferase reporter (YAP) in HEK293T cells. Kind of test: YAP Reporter Assay. The test is classed as cell-based. The conditions noted are these: Homo sapiens, HEK-293T, 24 h, read-out: Firefly Luciferase IC50 (μM). Background: A reporter such as luciferase makes a cellular process visible.
The term IC50 denotes the concentration that gives 50% inhibition. `CN(C)C(=O)c1nnc(-c2ccccc2Nc2ccc(C(F)(F)F)cc2)o1` [Compound 194, N,N-dimethyl-5-(2-((4-(trifluoromethyl)phenyl)amino)phenyl)-1,3,4-oxadiazole-2-carboxamide]: the IC50 lay within 1 to 5 µM. The same measure, in the same setting: then `CCOC(=O)C(O)(C(=O)OCC)c1nnc(-c2ccccc2Nc2ccc(C(F)(F)F)cc2)o1` [Compound 200, diethyl 2-hydroxy-2-(5-(2-((4-(trifluoromethyl)phenyl)amino)phenyl)-1,3,4-oxadiazol-2-yl)malonate], with 0.1 to 1 µM.

The same test, now with this note: Homo sapiens, HEK-293T; HEK293T cells stably transfected with 8XTBD luciferase reporter and pRLTK; 24-hr incubation; top concentration 3 μM; read-out: Firefly Luciferase IC50.
As to `CC1(c2nnc(-c3ccccc3Nc3ccc(C(F)(F)F)cc3)o2)CCO1` (stereo not drawn) [Compound 180, 2-(5-(2-methyloxetan-2-yl)-1,3,4-oxadiazol-2-yl)-N-(4-(trifluoromethyl)phenyl)aniline], the IC50 is below 0.1 µM.

Turning to `FC(F)(F)c1ccc(Nc2ccccc2-c2nnc(C3CCCO3)o2)cc1` (stereo not drawn) [Compound 181, 2-(5-(tetrahydrofuran-2-yl)-1,3,4-oxadiazol-2-yl)-N-(4-(trifluoromethyl)phenyl)aniline], the IC50 fell in the range of 0.1 to 1 µM. Still for that read-out and setting: then `FC(F)(F)c1ccc(Nc2ccccc2-c2nnc(C3CCO3)o2)cc1` (stereo not drawn) [Compound 182, 2-(5-(oxetan-2-yl)-1,3,4-oxadiazol-2-yl)-N-(4-(trifluoromethyl)phenyl)aniline], with below 0.1 µM; and `CC1(c2nnc(-c3ccccc3Nc3ccc(C(F)(F)F)cc3)o2)COC1` [Compound 183, 2-(5-(3-methyloxetan-3-yl)-1,3,4-oxadiazol-2-yl)-N-(4-(trifluoromethyl)phenyl)aniline], with 0.1 to 1 µM; and `N#CC1(c2nnc(-c3ccccc3Nc3ccc(C(F)(F)F)cc3)o2)CC1` [Compound 184, 1-(5-(2-((4-(trifluoromethyl)phenyl)amino)phenyl)-1,3,4-oxadiazol-2-yl)cyclopropane-1-carbonitrile], with below 0.1 µM. The same measure, in the same setting: next, `CN(C)C(=O)C1(c2nnc(-c3ccccc3Nc3ccc(C(F)(F)F)cc3)o2)CC1` [Compound 185, N,N-dimethyl-1-(5-(2-((4-(trifluoromethyl)phenyl)amino)phenyl)-1,3,4-oxadiazol-2-yl)cyclopropane-1-carboxamide]: 0.1 to 1 µM; `CNC(=O)C1(c2nnc(-c3ccccc3Nc3ccc(C(F)(F)F)cc3)o2)CC1` [Compound 186, N-methyl-1-(5-(2-((4-(trifluoromethyl)phenyl)amino)phenyl)-1,3,4-oxadiazol-2-yl)cyclopropane-1-carboxamide]: 0.1 to 1 µM; `NC(=O)C1(c2nnc(-c3ccccc3Nc3ccc(C(F)(F)F)cc3)o2)CC1` [Compound 187, 1-(5-(2-((4-(trifluoromethyl)phenyl)amino)phenyl)-1,3,4-oxadiazol-2-yl)cyclopropane-1-carboxamide]: below 0.1 µM. On to `COCC(C)NC(=O)c1nnc(-c2ccccc2Nc2ccc(C(F)(F)F)cc2)o1` (stereo not drawn) [Compound 188, N-(1-methoxypropan-2-yl)-5-(2-((4-(trifluoromethyl)phenyl)amino)phenyl)-1,3,4-oxadiazole-2-carboxamide], for which the IC50 was 0.1 to 1 µM. The same measure, in the same setting: then `CC(CO)NC(=O)c1nnc(-c2ccccc2Nc2ccc(C(F)(F)F)cc2)o1` (stereo not drawn) [Compound 189, N-(1-hydroxypropan-2-yl)-5-(2-((4-(trifluoromethyl)phenyl)amino)phenyl)-1,3,4-oxadiazole-2-carboxamide], with 0.1 to 1 µM; and `COCCNC(=O)c1nnc(-c2ccccc2Nc2ccc(C(F)(F)F)cc2)o1` [Compound 190, N-(2-methoxyethyl)-5-(2-((4-(trifluoromethyl)phenyl)amino)phenyl)-1,3,4-oxadiazole-2-carboxamide], with below 0.1 µM; and `O=C(NCCO)c1nnc(-c2ccccc2Nc2ccc(C(F)(F)F)cc2)o1` [Compound 191, N-(2-hydroxyethyl)-5-(2-((4-(trifluoromethyl)phenyl)amino)phenyl)-1,3,4-oxadiazole-2-carboxamide], with below 0.1 µM. The same measure, in the same setting: next, `CON(C)C(=O)c1nnc(-c2ccccc2Nc2ccc(C(F)(F)F)cc2)o1` [Compound 192, N-methoxy-N-methyl-5-(2-((4-(trifluoromethyl)phenyl)amino)phenyl)-1,3,4-oxadiazole-2-carboxamide]: 0.1 to 1 µM; `O=C(NC1CC1)c1nnc(-c2ccccc2Nc2ccc(C(F)(F)F)cc2)o1` [Compound 195, N-cyclopropyl-5-(2-((4-(trifluoromethyl)phenyl)amino)phenyl)-1,3,4-oxadiazole-2-carboxamide]: 0.1 to 1 µM. The same measure, in the same setting: then `CNC(=O)c1nnc(-c2ccccc2Nc2ccc(C(F)(F)F)cc2)o1` [Compound 198, N-methyl-5-(2-((4-(trifluoromethyl)phenyl)amino)phenyl)-1,3,4-oxadiazole-2-carboxamide], with below 0.1 µM; and `CC1(C)OCC(O)(c2nnc(-c3ccccc3Nc3ccc(C(F)(F)F)cc3)o2)CO1` [Compound 199, 2,2-dimethyl-5-(5-(2-((4-(trifluoromethyl)phenyl)amino)phenyl)-1,3,4-oxadiazol-2-yl)-1,3-dioxan-5-ol], with 1 to 5 µM. In the case of `OCC(O)(CO)c1nnc(-c2ccccc2Nc2ccc(C(F)(F)F)cc2)o1` [Compound 201, 2-(5-(2-((4-(trifluoromethyl)phenyl)amino)phenyl)-1,3,4-oxadiazol-2-yl)propane-1,2,3-triol], the IC50 was below 0.1 µM. Same read-out and setting: next, `CC(=O)OC(CO)c1nnc(-c2ccccc2Nc2ccc(C(F)(F)F)cc2)o1` (stereo not drawn) [Compound 202, 2-hydroxy-1-(5-(2-((4-(trifluoromethyl)phenyl)amino)phenyl)-1,3,4-oxadiazol-2-yl)ethyl acetate]: below 0.1 µM. The same measure, in the same setting: next, `OC(CF)c1nnc(-c2ccccc2Nc2ccc(C(F)(F)F)cc2)o1` (stereo not drawn) [Compound 203, 2-fluoro-1-(5-(2-((4-(trifluoromethyl)phenyl)amino)phenyl)-1,3,4-oxadiazol-2-yl)ethan-1-ol]: below 0.1 µM; `FC(F)(F)c1ccc(Nc2ccc(Br)cc2-c2nnc(C3CC3)o2)cc1` [Compound 204, 4-bromo-2-(5-cyclopropyl-1,3,4-oxadiazol-2-yl)-N-(4-(trifluoromethyl)phenyl)aniline]: 0.1 to 1 µM.

The test is the same for the next values; noted with them: Homo sapiens, HEK-293T; […]; 24-hr incubation; top concentration 3 μM; read-out: Firefly Luciferase IC50.
On to `CC(C)NC(=O)c1nnc(-c2ccccc2Nc2ccc(C(F)(F)F)cc2)o1` [Compound 196, N-isopropyl-5-(2-((4-(trifluoromethyl)phenyl)amino)phenyl)-1,3,4-oxadiazole-2-carboxamide], for which the IC50 was 0.1 to 1 µM. With `CCNC(=O)c1nnc(-c2ccccc2Nc2ccc(C(F)(F)F)cc2)o1` [Compound 197, N-ethyl-5-(2-((4-(trifluoromethyl)phenyl)amino)phenyl)-1,3,4-oxadiazole-2-carboxamide], the IC50 was below 0.1 µM.
